Laboratory results published in US20120010241A1, “HSP90 INHIBITING INDAZOLE DERIVATIVES, COMPOSITIONS CONTAINING SAME AND USE THEREOF” (SANOFI, priority 2009, published 2012).

Assays:
[1] = test system: Her2 expression in SKBr3 cells; assay: phenotypic SKBr3/HER2 cell test (Her2 expression at the cell surface, flow cytometry); type: cell-based; details: Homo sapiens, SK-BR-3, incubation for 24 h, anti-Her2 antibody coupled to PE, FACS
Experimental: The cellular activity of the compounds can in particular be evaluated by means of the phenotypic “SKBr3/HER2” cell test described below:
The SKBr3 […] adenocarcinoma cells, overexpressing the Her2 tyrosine kinase receptor, originate from the ATCC (HTB-30) and are cultured in McCoy's 5A medium supplemented with 10% FBS and 1% L-glutamine.
The cells are seeded in 12-well plates at a proportion of 125 000 cells per well in 1 ml of complete medium. The following day, the products are added at varying concentrations. After incubation for 24 h, the cells are trypsinized, washed with PBS and incubated with 100 ng of anti-Her2 antibody coupled to PE (phycoerythrin) (BD 340552) for 30 minutes at 4° C. in the dark. The fluorescence due to the expression of the Her2 receptor at the surface of the cells is then read using a FACS Calibur flow cytometer (Becton-Dickinson). The percentage inhibition of Her2 expression as a function of the concentrations of product tested is fitted by the nonlinear regression technique (XLfit, equation 205) in order to measure the IC50 for each product.

[2] = biological target: Hsp82 (Saccharomyces cerevisiae, UniProt P02829); assay: Hsp82/ATPase test (PK/LDH coupled spectrophotometric method; malachite green method also described); type: biochemical; details: 1 μM Hsp82, 250 μM ATP, 37° C., absorbance at 340 nm
Chain of Hsp82 (P02829 whole entry): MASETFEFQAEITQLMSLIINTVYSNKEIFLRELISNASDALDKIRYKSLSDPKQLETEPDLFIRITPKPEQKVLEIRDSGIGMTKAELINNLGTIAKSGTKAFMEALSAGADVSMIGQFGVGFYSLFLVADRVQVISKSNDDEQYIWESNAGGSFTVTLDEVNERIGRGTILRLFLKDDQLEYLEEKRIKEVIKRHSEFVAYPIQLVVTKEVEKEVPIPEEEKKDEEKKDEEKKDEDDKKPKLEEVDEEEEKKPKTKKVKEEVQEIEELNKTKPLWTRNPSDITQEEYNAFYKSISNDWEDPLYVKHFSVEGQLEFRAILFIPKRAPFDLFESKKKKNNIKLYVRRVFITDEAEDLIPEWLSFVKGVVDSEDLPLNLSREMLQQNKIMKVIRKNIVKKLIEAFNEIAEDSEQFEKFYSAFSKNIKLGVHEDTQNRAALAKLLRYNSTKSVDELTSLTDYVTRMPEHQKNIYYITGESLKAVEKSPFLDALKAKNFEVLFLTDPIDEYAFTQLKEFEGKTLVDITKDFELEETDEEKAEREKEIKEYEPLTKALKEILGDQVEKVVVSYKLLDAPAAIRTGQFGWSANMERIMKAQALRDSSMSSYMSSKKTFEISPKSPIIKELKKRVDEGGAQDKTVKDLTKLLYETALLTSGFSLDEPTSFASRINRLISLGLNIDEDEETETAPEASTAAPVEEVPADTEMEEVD
Experimental: The biochemical activity of the compounds can in particular be evaluated by means of the “Hsp82/ATPase” test described below:
The inorganic phosphate released during the hydrolysis of ATP by the ATPase activity of Hsp82 is quantified by the malachite green method. In the presence of this reagent, formation of the inorganic phosphate-molybdate-malachite green complex, which absorbs at a wavelength of 620 nm, occurs.
The products to be evaluated are incubated in a reaction volume of 30 μl, in the presence of 1 μM Hsp82 and of 250 μM of substrate (ATP) in a buffer composed of 50 mM Hepes-NaOH (pH 7.5), 1 mM DTT, 5 mM MgCl2 and 50 mM KCl at 37° C. for 60 min. In parallel, an inorganic phosphate range of between 1 and 40 μM is made up in the same buffer. […] The inorganic phosphate concentration of each sample is then calculated from the standard curve. The ATPase activity of Hsp82 is expressed as concentration of inorganic phosphate produced in 60 minutes. The effect of the various products tested is expressed as percentage inhibition of the ATPase activity.
The formation of ADP due to the ATPase activity of Hsp82 was used to develop another method for evaluating the enzyme activity of this enzyme by application of an enzymatic coupling system involving pyruvate kinase (PK) and lactate dehydrogenase (LDH). In this kinetic-type spectrophotometric method, PK catalyses the formation of ATP and of pyruvate from phosphoenol pyruvate (PEP) and the ADP produced by Hsp82. The pyruvate formed, which is a substrate for LDH, is subsequently converted to lactate in the presence of NADH. In this case, the decrease in the NADH concentration, measured through the decrease in absorbance at the wavelength of 340 nm, is proportional to the concentration of ADP produced by Hsp82.
The products tested are incubated in a reaction volume of 100 μl of buffer composed of 100 mM Hepes-NaOH (pH 7.5), 5 mM MgCl2, 1 mM DTT, 150 mM KCl, 0.3 mM NADH, 2.5 mM PEP and 250 μM ATP. This mixture is preincubated at 37° C. for 30 minutes before the addition of 3.77 units of LDH and 3.77 units of PK. The reaction is initiated by addition of the product to be evaluated, in varying concentrations, and of Hsp82, at the concentration of 1 μM. The enzymatic activity of Hsp82 is then measured continuously, in a microplate reader, at 37° C., at the wavelength of 340 nm. The initial rate of the reaction is obtained by measuring the slope of the tangent to the origin of the curve recorded. The enzymatic activity is expressed in μM of ADP formed per minute. The effect of the various products tested is expressed as 50% inhibitory concentration (1050) with respect to the ATPase activity, according to the codification below: […]

Row | SMILES | IC50 [1] | IC50 [2]
1 | Cc1nn(-c2ccc(C(N)=O)c(NC[C@H]3C[C@@H]4CC[C@H]3O4)c2)c2cccc(-c3cnc4ccccc4c3)c12 (single isomer, unassigned) [Example 19, 4-(3-methyl-4-quinolin-3-ylindazol-1-yl)-2-{[exo-1-(7-oxabicyclo[2.2.1]hept-2-yl)methyl]amino}benzamide] | < 1000 nM | 
2 | Cc1nn(-c2ccc(C(N)=O)c(NC[C@@H]3C[C@@H]4CC[C@H]3O4)c2)c2cccc(-c3cnc4ccccc4c3)c12 (single isomer, unassigned) [Example 20, 4-(3-methyl-4-quinolin-3-ylindazol-1-yl)-2-{[endo-1-(7-oxabicyclo[2.2.1]hept-2-yl)methyl]amino}benzamide] | < 1000 nM | 
3 | Cc1nn(-c2ccc(C(N)=O)c(N[C@H]3CC[C@H](O)CC3)c2)c2cccc(-c3cnc4ccccc4c3)c12 [Example 1, 2-(trans-4-hydroxycyclohexylamino)-4-(3-methyl-4-quinolin-3-ylindazol-1-yl)benzamide] | < 1000 nM | < 1000 nM
4 | Cc1nn(-c2ccc(C(N)=O)cc2)c2cccc(-c3cnc4ccccc4c3)c12 [Example 2, 4-(3-methyl-4-quinolin-3-ylindazol-1-yl)benzamide] | 10000 to 100000 nM | 1000 to 10000 nM
5 | Cc1nn(-c2ccc(C(N)=O)c(NCCCO)c2)c2cccc(-c3cnc4ccccc4c3)c12 [Example 3, 2-(3-hydroxypropylamino)-4-(3-methyl-4-quinolin-3-ylindazol-1-yl)benzamide] | < 1000 nM | < 1000 nM
6 | Cc1nn(-c2ccc(C(N)=O)c(NCCC3(O)CCN(C)CC3)c2)c2cccc(-c3cnc4ccccc4c3)c12 [Example 4, 2-[2-(4-hydroxy-1-methylpiperidin-4-yl)ethylamino]-4-(3-methyl-4-quinolin-3-ylindazol-1-yl)benzamide] | < 1000 nM | 
7 | Cc1nn(-c2ccc(C(N)=O)c(NCC(C)(C)O)c2)c2cccc(-c3cnc4ccccc4c3)c12 [Example 5, 2-(2-hydroxy-2-methylpropylamino)-4-(3-methyl-4-quinolin-3-ylindazol-1-yl)benzamide] | < 1000 nM | < 1000 nM
8 | Cc1nn(-c2ccc(C(N)=O)c(NC3CC(C)(C)NC(C)(C)C3)c2)c2cccc(-c3cnc4ccccc4c3)c12 [Example 6, 4-(3-methyl-4-quinolin-3-ylindazol-1-yl)-2-(2,2,6,6-tetramethylpiperidin-4-ylamino)benzamide] | < 1000 nM | < 1000 nM
9 | Cc1nn(-c2ccc(C(N)=O)c(NC3CCOCC3)c2)c2cccc(-c3cnc4ccccc4c3)c12 [Example 7, 4-(3-methyl-4-quinolin-3-ylindazol-1-yl)-2-(tetrahydropyran-4-ylamino)benzamide] | < 1000 nM | < 1000 nM
10 | Cc1nn(-c2ccc(C(N)=O)c(NCCF)c2)c2cccc(-c3cnc4ccccc4c3)c12 [Example 8, 2-(2-fluoroethylamino)-4-(3-methyl-4-quinolin-3-ylindazol-1-yl)benzamide] | < 1000 nM | 
11 | Cc1nn(-c2cnc(C(N)=O)c(NCC(C)(C)O)c2)c2cccc(-c3cnc4ccccc4c3)c12 [Example 9, 3-(2-hydroxy-2-methylpropylamino)-5-(3-methyl-4-quinolin-3-ylindazol-1-yl)pyridine-2-carboxamide] | < 1000 nM | 
12 | Cc1nn(-c2cnc(C(N)=O)c(NC3CCOCC3)c2)c2cccc(-c3cnc4ccccc4c3)c12 [Example 10, 5-(3-methyl-4-quinolin-3-ylindazol-1-yl)-3-(tetrahydro-pyran-4-ylamino)pyridine-2-carboxamide] | < 1000 nM | < 1000 nM
13 | Cc1nn(-c2ccc(C(N)=O)c(N[C@H]3CC[C@H](OC(=O)CN)CC3)c2)c2cccc(-c3cnc4ccccc4c3)c12 [Example 11, aminoacetic acid trans-4-[2-carbamoyl-5-(3-methyl-4-quinolin-3-ylindazol-1-yl)phenylamino]cyclohexyl ester] | < 1000 nM | < 1000 nM
14 | Cc1nn(-c2ccc(C(N)=O)c(N[C@H]3CC[C@H](O)CC3)c2)c2cccc(-c3nc4ccc(F)cc4[nH]3)c12 [Example 12, 4-[4-(6-fluoro-1H-benzimidazol-2-yl)-3-methylindazol-1-yl]-2-(trans-4-hydroxycyclohexylamino)benzamide] | < 1000 nM | < 1000 nM
15 | Cc1nn(-c2ccc(C(N)=O)c(NCC(C)(C)O)c2)c2cccc(-c3nc4ccc(F)cc4[nH]3)c12 [Example 13, 4-[4-(6-fluoro-1H-benzimidazol-2-yl)-3-methylindazol-1-yl]-2-(2-hydroxy-2-methylpropylamino)benzamide] | < 1000 nM | 
16 | Cc1nn(-c2ccc(C(N)=O)c(NC3CC(C)(C)N(C)C(C)(C)C3)c2)c2cccc(-c3cnc4ccccc4c3)c12 [Example 15, 4-(3-methyl-4-quinolin-3-ylindazol-1-yl)-2-(1,2,2,6,6-pentamethylpiperidin-4-ylamino)benzamide] | < 1000 nM | 1000 to 10000 nM
17 | Cc1nn(-c2cnc(C(N)=O)c(N[C@H]3CC[C@H](O)CC3)c2)c2cccc(-c3cnc4ccccc4c3)c12 [Example 16, 3-(trans-4-hydroxycyclohexylamino)-5-(3-methyl-4-quinolin-3-ylindazol-1-yl)pyridine-2-carboxamide] | < 1000 nM | 
18 | Cc1nn(-c2cnc(C(N)=O)c(NC3CC(C)(C)N(C)C(C)(C)C3)c2)c2cccc(-c3cnc4ccccc4c3)c12 [Example 17] | < 1000 nM | 
19 | NC(=O)c1ccc(-n2nc(C(F)(F)F)c3c(-c4cnc5ccccc5c4)cccc32)cc1N[C@H]1CC[C@H](O)CC1 [Example 21, 2-(trans-4-hydroxycyclohexylamino)-4-(4-quinolin-3-trifluoromethylindazol-1-yl)benzamide] | < 1000 nM | 
20 | NC(=O)c1ccc(-n2nc(C(F)(F)F)c3c(-c4nc5ccc(F)cc5[nH]4)cccc32)cc1N[C@H]1CC[C@H](O)CC1 [Example 22, 4-[4-(6-fluoro-1H-benzimidazol-2-yl)-3-trifluoromethylindazol-1-yl]-2-(trans-4-hydroxycyclohexylamino)benzamide] | 1000 to 10000 nM | 
21 | NC(=O)c1ncc(-n2nc(C(F)(F)F)c3c(-c4cnc5ccccc5c4)cccc32)cc1N[C@H]1CC[C@H](O)CC1 [Example 23, 3-(trans-4-hydroxycyclohexylamino)-5-(4-quinolin-3-yl-3-trifluoromethylindazol-1-yl)pyridine-2-carboxamide] | < 1000 nM | 
22 | NC(=O)c1ccc(-n2ncc3c(-c4cnc5ccccc5c4)cccc32)cc1N[C@H]1CC[C@H](O)CC1 [Example 24, 2-(trans-4-hydroxycyclohexylamino)-4-(4-quinolin-3-ylindazol-1-yl)benzamide] | < 1000 nM | 
23 | NC(=O)c1ccc(-n2ncc3c(-c4cnc5ccccc5c4)cccc32)cc1 [Example 25, 4-(4-quinolin-3-ylindazol-1-yl)benzamide] | 10000 to 100000 nM | 
24 | NC(=O)c1ncc(-n2nc(Cl)c3c(-c4cnc5ccccc5c4)cccc32)cc1N[C@H]1CC[C@H](O)CC1 [Example 26, 5-(3-chloro-4-quinolin-3-ylindazol-1-yl)-3-(trans-4-hydroxycyclohexylamino)pyridine-2-carboxamide] | < 1000 nM | 
25 | CC(C)(O)CNc1cc(-n2nc(Br)c3c(-c4cnc5ccccc5c4)cccc32)cnc1C(N)=O [Example 27, 5-(3-bromo-4-quinolin-3-ylindazol-1-yl)-3-(2-hydroxy-2-methylpropylamino)pyridine-2-carboxamide] | < 1000 nM | 
